This note sets out measurements from ChEMBL document CHEMBL4342498, “Design and Discovery of an Orally Efficacious Spiroindolinone-Based Tankyrase Inhibitor for the Treatment of Colon Cancer” (J Med Chem, 2020).

In brackets after ≈: the same amount, converted by molar mass.

The term IC50 denotes the point on the concentration scale where inhibition reaches its midpoint. Broadly, the GI50 is the concentration giving 50% growth inhibition. Broadly, the efflux ratio is the permeability from basolateral to apical divided by that in the opposite direction, in the common usage. As usually defined, the solubility is the concentration that dissolves in the medium under given conditions. Read a low solubility as a poorly soluble substance.

The first data set deals with T1, Poly [ADP-ribose] polymerase tankyrase-2 (Homo sapiens, UniProt Q9H2K2).
T1 sequence (Q9H2K2 whole entry): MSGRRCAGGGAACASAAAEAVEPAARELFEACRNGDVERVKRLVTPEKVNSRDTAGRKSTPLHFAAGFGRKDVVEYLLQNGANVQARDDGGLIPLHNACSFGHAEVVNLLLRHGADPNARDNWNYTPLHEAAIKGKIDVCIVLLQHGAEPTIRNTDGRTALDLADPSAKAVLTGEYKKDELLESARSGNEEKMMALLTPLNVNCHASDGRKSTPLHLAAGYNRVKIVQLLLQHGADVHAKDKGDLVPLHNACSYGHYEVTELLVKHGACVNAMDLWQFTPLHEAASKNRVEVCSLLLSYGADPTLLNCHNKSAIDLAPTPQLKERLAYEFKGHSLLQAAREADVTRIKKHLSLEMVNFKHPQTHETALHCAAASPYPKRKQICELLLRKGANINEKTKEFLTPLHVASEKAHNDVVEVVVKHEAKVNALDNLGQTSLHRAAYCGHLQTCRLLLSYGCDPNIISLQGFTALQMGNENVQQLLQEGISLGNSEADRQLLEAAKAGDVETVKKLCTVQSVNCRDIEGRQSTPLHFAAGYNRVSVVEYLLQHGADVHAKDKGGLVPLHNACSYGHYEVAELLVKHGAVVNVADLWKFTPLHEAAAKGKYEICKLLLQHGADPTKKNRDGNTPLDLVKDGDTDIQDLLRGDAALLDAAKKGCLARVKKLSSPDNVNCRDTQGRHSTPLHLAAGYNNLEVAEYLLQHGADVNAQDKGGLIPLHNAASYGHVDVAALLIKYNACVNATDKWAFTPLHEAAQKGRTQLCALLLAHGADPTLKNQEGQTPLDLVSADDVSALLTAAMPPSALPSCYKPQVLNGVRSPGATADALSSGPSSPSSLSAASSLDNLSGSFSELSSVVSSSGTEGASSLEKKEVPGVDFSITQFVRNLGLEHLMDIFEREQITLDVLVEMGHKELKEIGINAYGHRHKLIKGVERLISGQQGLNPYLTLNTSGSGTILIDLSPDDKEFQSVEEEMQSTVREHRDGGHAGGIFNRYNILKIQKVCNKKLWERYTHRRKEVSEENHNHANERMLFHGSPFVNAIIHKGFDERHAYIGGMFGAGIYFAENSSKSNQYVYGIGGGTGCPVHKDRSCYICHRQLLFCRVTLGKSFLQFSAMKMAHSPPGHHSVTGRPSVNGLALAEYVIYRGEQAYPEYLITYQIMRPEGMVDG
The data set is described as follows: Inhibition of recombinant human N-terminal TEV cleavage site-fused/FLAG-poly his-tagged TNKS2 ARC5-SAM-PARP domain (613 to 1166 residues) expressed in Escherichia coli assessed as reduction in auto-PARylation preincubated for 10 mins followed by biotinylated-NAD+ addition and measured after 45 mins by ELISA.
Settings: not given
For orientation: ELISA stands for enzyme-linked immunosorbent assay.
For `CN1CCCc2c1nc(N1CCC3(CC1)C(=O)N(C)c1cc(N4CCNCC4)cc(F)c13)[nH]c2=O`, the IC50 amounted to 23.4 nM.
Same read-out and setting: the value for `C[C@@H]1CN(c2cc(F)c3c(c2)N(C)C(=O)C32CCN(c3nc4c(c(=O)[nH]3)CCCN4C)CC2)C[C@H](C)N1` was 20.2 nM.
The same measure, in the same setting: the value for `CN1CCCc2c1nc(N1CCC3(CC1)C(=O)N(CC(O)CO)c1cc(F)cc(F)c13)[nH]c2=O` (stereo not drawn) was 12.5 nM.

The next data set has as its system COLO 320DM. Briefly: Antiproliferative activity against human COLO320DM cells assessed as inhibition of cell growth measured after 4 days by CellTiter-Glo assay. Format: functional. Particulars: 96 h.
On to `CN1CCCc2c1nc(N1CCC3(CC1)C(=O)N(C)c1cc(N4CCNCC4)cc(F)c13)[nH]c2=O`, for which the GI50 was 1120 nM.
Same read-out and setting: the result for `C[C@@H]1CN(c2cc(F)c3c(c2)N(C)C(=O)C32CCN(c3nc4c(c(=O)[nH]3)CCCN4C)CC2)C[C@H](C)N1` reads 850 nM.
As for `CN1CCCc2c1nc(N1CCC3(CC1)C(=O)N(CC(O)CO)c1cc(F)cc(F)c13)[nH]c2=O` (stereo not drawn), the GI50 came to 710 nM.

System in a further data set: not listed separately
The data set is described as follows: Stability in mouse liver microsomes assessed as parent compound remaining at 1 uM measured after 60 mins in presence of NADPH by LC-MS/MS analysis. The data set is classed as ADME, Microsome. Particulars: read-out: Stability.
Consider `CN1CCCc2c1nc(N1CCC3(CC1)C(=O)N(C)c1cc(N4CCNCC4)cc(F)c13)[nH]c2=O`, for which the remaining at 1 h, 1 µM came to 63.7%.
The same measure, in the same setting: the value for `C[C@@H]1CN(c2cc(F)c3c(c2)N(C)C(=O)C32CCN(c3nc4c(c(=O)[nH]3)CCCN4C)CC2)C[C@H](C)N1` was 82.7%; that for `CN1CCCc2c1nc(N1CCC3(CC1)C(=O)N(CC(O)CO)c1cc(F)cc(F)c13)[nH]c2=O` (stereo not drawn) was 42.7%.

System in another data set: not listed separately
Briefly: Stability in human liver microsomes assessed as parent compound remaining at 1 uM measured after 60 mins in presence of NADPH by LC-MS/MS analysis. The data set is classed as ADME, Microsome. The note with it: read-out: Stability. A general note: Liver microsomes are vesicles of endoplasmic reticulum, rich in cytochrome P450 enzymes.
With `CN1CCCc2c1nc(N1CCC3(CC1)C(=O)N(C)c1cc(N4CCNCC4)cc(F)c13)[nH]c2=O`, the remaining at 1 h, 1 µM was determined as 28.6%.
`C[C@@H]1CN(c2cc(F)c3c(c2)N(C)C(=O)C32CCN(c3nc4c(c(=O)[nH]3)CCCN4C)CC2)C[C@H](C)N1`: the remaining at 1 h, 1 µM was determined as 33%.
The same measure, in the same setting: the value for `CN1CCCc2c1nc(N1CCC3(CC1)C(=O)N(CC(O)CO)c1cc(F)cc(F)c13)[nH]c2=O` (stereo not drawn) was 23.9%.

For the next data set, the system named is MDR1. Briefly: Efflux ratio of permeability across basolateral to apical side over apical to basolateral side in MDCK2-MDR1 cells. The data set is classed as ADME, cell-based, Canis lupus familiaris. The note with it: dog, MDCK-MDR1.
Regarding `CN1CCCc2c1nc(N1CCC3(CC1)C(=O)N(C)c1cc(N4CCNCC4)cc(F)c13)[nH]c2=O`, the efflux ratio was 9.1.
Consider `C[C@@H]1CN(c2cc(F)c3c(c2)N(C)C(=O)C32CCN(c3nc4c(c(=O)[nH]3)CCCN4C)CC2)C[C@H](C)N1`, for which the efflux ratio was found to be 23.1.
For `CN1CCCc2c1nc(N1CCC3(CC1)C(=O)N(CC(O)CO)c1cc(F)cc(F)c13)[nH]c2=O` (stereo not drawn), the efflux ratio turned out to be 43.7.

System in the next data set: not listed separately
The data set is described as follows: Efflux ratio of permeability across basolateral to apical side over apical to basolateral side in MDCK2 cells. Format: ADME, cell-based, Canis lupus familiaris, MDCK-II. The note with it: dog, mdck.
Take `CN1CCCc2c1nc(N1CCC3(CC1)C(=O)N(C)c1cc(N4CCNCC4)cc(F)c13)[nH]c2=O`: the efflux ratio turned out to be 6.8.
Same read-out and setting: the value for `C[C@@H]1CN(c2cc(F)c3c(c2)N(C)C(=O)C32CCN(c3nc4c(c(=O)[nH]3)CCCN4C)CC2)C[C@H](C)N1` was 6.2; that for `CN1CCCc2c1nc(N1CCC3(CC1)C(=O)N(CC(O)CO)c1cc(F)cc(F)c13)[nH]c2=O` (stereo not drawn) was 11.2.

System in a further data set: not listed separately
Briefly: Net efflux ratio of permeability across basolateral to apical side over apical to basolateral side in MDCK2-MDR1 cells to MDCK2 cells. Format: ADME, cell-based, Canis lupus familiaris. Particulars: dog, mdck.
Consider `CN1CCCc2c1nc(N1CCC3(CC1)C(=O)N(C)c1cc(N4CCNCC4)cc(F)c13)[nH]c2=O`, for which the Ratio stood at 1.3.
For the compound `C[C@@H]1CN(c2cc(F)c3c(c2)N(C)C(=O)C32CCN(c3nc4c(c(=O)[nH]3)CCCN4C)CC2)C[C@H](C)N1`, the Ratio is reported as 3.7.
On to `CN1CCCc2c1nc(N1CCC3(CC1)C(=O)N(CC(O)CO)c1cc(F)cc(F)c13)[nH]c2=O` (stereo not drawn), for which the Ratio amounted to 3.9.

A further data set concerns the target T2, Poly [ADP-ribose] polymerase tankyrase-1 (Homo sapiens, UniProt O95271).
T2 sequence (O95271 whole entry): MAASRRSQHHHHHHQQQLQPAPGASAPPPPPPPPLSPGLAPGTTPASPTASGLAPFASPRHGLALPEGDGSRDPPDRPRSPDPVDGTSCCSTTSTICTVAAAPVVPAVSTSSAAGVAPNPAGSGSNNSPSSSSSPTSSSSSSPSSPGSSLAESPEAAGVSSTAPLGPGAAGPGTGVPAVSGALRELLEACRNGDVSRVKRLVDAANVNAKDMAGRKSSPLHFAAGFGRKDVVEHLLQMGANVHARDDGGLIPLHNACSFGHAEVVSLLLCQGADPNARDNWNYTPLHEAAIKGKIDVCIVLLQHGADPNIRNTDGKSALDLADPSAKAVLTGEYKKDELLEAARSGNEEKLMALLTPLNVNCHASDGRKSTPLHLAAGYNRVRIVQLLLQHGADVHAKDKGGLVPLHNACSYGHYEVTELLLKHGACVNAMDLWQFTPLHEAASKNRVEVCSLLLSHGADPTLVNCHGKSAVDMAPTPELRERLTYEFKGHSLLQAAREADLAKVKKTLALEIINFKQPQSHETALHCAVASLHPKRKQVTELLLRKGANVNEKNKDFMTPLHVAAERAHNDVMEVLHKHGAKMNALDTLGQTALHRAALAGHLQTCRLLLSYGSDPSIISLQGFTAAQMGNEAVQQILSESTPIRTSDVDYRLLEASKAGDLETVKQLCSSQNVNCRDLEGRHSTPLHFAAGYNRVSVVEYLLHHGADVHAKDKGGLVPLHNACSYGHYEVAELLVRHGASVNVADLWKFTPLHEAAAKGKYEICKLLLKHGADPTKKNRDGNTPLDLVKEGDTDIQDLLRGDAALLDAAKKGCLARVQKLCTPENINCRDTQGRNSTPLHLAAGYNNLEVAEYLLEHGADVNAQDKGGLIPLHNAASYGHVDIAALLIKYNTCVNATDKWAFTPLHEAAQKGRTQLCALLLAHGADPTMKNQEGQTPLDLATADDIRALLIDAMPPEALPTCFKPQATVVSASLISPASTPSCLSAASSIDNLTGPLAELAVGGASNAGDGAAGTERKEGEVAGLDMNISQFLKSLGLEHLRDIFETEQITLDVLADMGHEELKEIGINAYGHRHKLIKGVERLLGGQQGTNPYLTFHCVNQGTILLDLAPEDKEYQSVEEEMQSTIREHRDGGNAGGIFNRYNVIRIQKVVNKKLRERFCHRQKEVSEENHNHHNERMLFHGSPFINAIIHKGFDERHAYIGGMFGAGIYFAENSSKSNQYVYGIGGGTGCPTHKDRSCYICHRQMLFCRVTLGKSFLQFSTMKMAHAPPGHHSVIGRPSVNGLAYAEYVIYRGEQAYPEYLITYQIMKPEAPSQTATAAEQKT
Assay: not given
Settings: not given
As to `CN1CCCc2c1nc(N1CCC3(CC1)C(=O)N(C)c1cc(N4CCNCC4)cc(F)c13)[nH]c2=O`, inhibition was half-maximal at 12.8 nM (IC50).
Turning to `C[C@@H]1CN(c2cc(F)c3c(c2)N(C)C(=O)C32CCN(c3nc4c(c(=O)[nH]3)CCCN4C)CC2)C[C@H](C)N1`, half-maximal inhibition (IC50) required 11.1 nM.
Same read-out and setting: the result for `CN1CCCc2c1nc(N1CCC3(CC1)C(=O)N(CC(O)CO)c1cc(F)cc(F)c13)[nH]c2=O` (stereo not drawn) reads 8.9 nM.

A further data set concerns the target T3, Tankyrase 1/2 (Homo sapiens, UniProt Q9H2K2+O95271).
T3 sequence (Q9H2K2 whole entry): T1 sequence (Q9H2K2 whole entry)
T3 sequence (O95271 whole entry): T2 sequence (O95271 whole entry)
Assay: not given
Particulars: hek293.
`CN1CCCc2c1nc(N1CCC3(CC1)C(=O)N(C)c1cc(N4CCNCC4)cc(F)c13)[nH]c2=O` showed an IC50 of 3.2 nM.
For `C[C@@H]1CN(c2cc(F)c3c(c2)N(C)C(=O)C32CCN(c3nc4c(c(=O)[nH]3)CCCN4C)CC2)C[C@H](C)N1`, the 50% inhibitory concentration (IC50) is on record as 0.1 nM.
The same measure, in the same setting: the value for `CN1CCCc2c1nc(N1CCC3(CC1)C(=O)N(CC(O)CO)c1cc(F)cc(F)c13)[nH]c2=O` (stereo not drawn) was 0.7 nM.

Another data set addresses T3, Tankyrase 1/2.
Assay: not given
Settings: not given
As for `CN1CCCc2c1nc(N1CCC3(CC1)C(=O)N(C)c1cc(N4CCNCC4)cc(F)c13)[nH]c2=O`, the IC50 came out at 29.1 nM.
For `C[C@@H]1CN(c2cc(F)c3c(c2)N(C)C(=O)C32CCN(c3nc4c(c(=O)[nH]3)CCCN4C)CC2)C[C@H](C)N1`, the IC50 is 4.3 nM.
On the same count and under the same terms, the value for `CN1CCCc2c1nc(N1CCC3(CC1)C(=O)N(CC(O)CO)c1cc(F)cc(F)c13)[nH]c2=O` (stereo not drawn) was 14.5 nM.

System in the next data set: not listed separately
The data set is described as follows: physchem. The note with it: phosphate buffered saline, pH 7.4.
Compound `CN1CCCc2c1nc(N1CCC3(CC1)C(=O)N(C)c1cc(N4CCNCC4)cc(F)c13)[nH]c2=O` returned a solubility at 1 h, 200 µM of 97.3 µg/mL (≈ 202 µM).
Still for that read-out and setting: the result for `C[C@@H]1CN(c2cc(F)c3c(c2)N(C)C(=O)C32CCN(c3nc4c(c(=O)[nH]3)CCCN4C)CC2)C[C@H](C)N1` reads 102 µg/mL (≈ 200 µM); that for `CN1CCCc2c1nc(N1CCC3(CC1)C(=O)N(CC(O)CO)c1cc(F)cc(F)c13)[nH]c2=O` (stereo not drawn), 88.2 µg/mL (≈ 185 µM).
